Target: T1, human RORgT (Homo sapiens, UniProt P51449)
T1 construct: expressed in transfected cells
T1 sequence (P51449 267-516): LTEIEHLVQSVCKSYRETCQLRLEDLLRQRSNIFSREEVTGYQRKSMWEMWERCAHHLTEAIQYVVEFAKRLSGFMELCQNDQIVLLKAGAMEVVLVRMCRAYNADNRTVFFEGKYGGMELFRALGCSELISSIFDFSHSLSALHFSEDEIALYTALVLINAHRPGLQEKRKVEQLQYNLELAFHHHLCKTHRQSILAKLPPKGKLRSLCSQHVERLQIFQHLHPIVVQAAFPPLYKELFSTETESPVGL
Experiment: RORgT Gal4 Luciferase Reporter Gene Assay
Assay type: cell-based
Settings: engineered Jurkat cells overexpressing RORgT (LBD or full length) fused with Gal4 Luc reporter; 18 hours at 37° C.; luminescence
Procedure, shortened: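 Jurkat cells expressing Gal4 Luc with either RORgT LBD (aa267-516) or full-length human RORgT, 10,000 cells/well, treated with compound (40 µM to 0.67 nM final, 3-fold dilutions) for 18 h at 37° C. Steady-Glo luminescence read; inhibition of constitutive activity as % signal-window reduction relative to a control compound.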

Row | EC50 | SMILES
1 | 0.0031 µM | C[C@]1(C(=O)N2CC[C@@]3(S(=O)(=O)c4ccc(F)cc4)c4ccc(OCc5cc(Cl)ccc5Cl)cc4CC[C@@H]23)CC[C@H](C(=O)O)CC1 [Example 113, (1r,4r)-4-[(3aR,9bR)-7-[(2,5-dichlorophenyl)methoxy]-9b-(4-fluorobenzenesulfonyl)-1H,2H,3H,3aH,4H,5H,9bH-benzo[e]indole-3-carbonyl]-4-methylcyclohexane-1-carboxylic acid]
2 | 0.014 µM | O=C(C1CCS(=O)(=O)C1)N1CC[C@@]2(S(=O)(=O)c3ccc(F)cc3)c3ccc(OCc4c(Cl)cccc4Cl)cc3CC[C@@H]12 (stereo partly drawn) [Example 170, 3-[(3aR,9bR)-7-[(2,6-dichlorophenyl)methoxy]-9b-(4-fluorobenzenesulfonyl)-1H,2H,3H,3aH,4H,5H,9bH-benzo[e]indole-3-carbonyl]-1λ^6-thiolane-1,1-dione]
3 | 0.256 µM | O=C1NC(C(=O)N2CC[C@@]3(S(=O)(=O)c4ccccc4)c4ccc(OCc5c(Cl)cccc5Cl)cc4CC[C@@H]23)CO1 (stereo partly drawn) [Example 65, 4-[(3aR,9bR)-9b-(benzenesulfonyl)-7-[(2,6-dichlorophenyl)methoxy]-1H,2H,3H,3aH,4H,5H,9bH-benzo[e]indole-3-carbonyl]-1,3-oxazolidin-2-one]
4 | 0.006 µM | O=C(C1CCS(=O)(=O)C1)N1CC[C@@]2(S(=O)(=O)c3ccc(F)cc3)c3ccc(OCc4c(F)cccc4Cl)cc3CC[C@@H]12 (stereo partly drawn) [Example 18, 3-[(3aR,9bR)-7-[(2-chloro-6-fluorophenyl)methoxy]-9b-(4-fluorobenzenesulfonyl)-1H,2H,3H,3aH,4H,5H,9bH-benzo[e]indole-3-carbonyl]-1λ^6-thiolane-1,1-dione]
5 | 0.0065 µM | [2H]C([2H])([2H])N1C(=O)CC[C@H]1C(=O)N1CC[C@@]2(S(=O)(=O)c3ccccc3)c3ccc(OCc4c(F)cccc4Cl)cc3CC[C@@H]12 [Example 146, (5S)-5-[(3aR,9bR)-9b-(benzenesulfonyl)-7-[(2-chloro-6-fluorophenyl)methoxy]-1H,2H,3H,3aH,4H,5H,9bH-benzo[e]indole-3-carbonyl]-1-(^2H)methylpyrrolidin-2-one]
6 | 0.0044 µM | Cc1ccccc1Cc1ccc2c(c1)CC[C@H]1N(C(=O)CC3CCS(=O)(=O)C3)CC[C@@]21S(=O)(=O)c1ccc(F)cc1 (stereo partly drawn) [Example 47, 3-{2-[(3aR,9bR)-9b-(4-fluorobenzenesulfonyl)-7-[(2-methylphenyl)methyl]-1H,2H,3H,3aH,4H,5H,9bH-benzo[e]indol-3-yl]-2-oxoethyl}-1λ^6-thiolane-1,1-dione]
7 | 0.317 µM | Cn1cc(C(=O)N2CC[C@@]3(S(=O)(=O)c4ccccc4)c4ccc(OCc5c(Cl)cccc5Cl)cc4CC[C@@H]23)cn1 [Example 100, 4-[(3aR,9bR)-9b-(benzenesulfonyl)-7-[(2,6-dichlorophenyl)methoxy]-1H,2H,3H,3aH,4H,5H,9bH-benzo[e]indole-3-carbonyl]-1-methyl-1H-pyrazole]
8 | 0.29 µM | CS(=O)(=O)C1CCN(C(=O)N2CC[C@@]3(S(=O)(=O)c4ccccc4)c4ccc(OCc5c(Cl)cccc5Cl)cc4CC[C@@H]23)C1 (stereo partly drawn) [Example 93, 1-[(3aR,9bR)-9b-(benzenesulfonyl)-7-[(2,6-dichlorophenyl)methoxy]-1H,2H,3H,3aH,4H,5H,9bH-benzo[e]indole-3-carbonyl]-3-methanesulfonylpyrrolidine]
9 | 0.011 µM | O=C(CN1CCS(=O)(=O)CC1)N1CC[C@@]2(S(=O)(=O)c3ccc(F)cc3)c3ccc(OCc4c(F)cccc4Cl)cc3CC[C@@H]12 [Example 165, 4-{2-[(3aR,9bR)-7-[(2-chloro-6-fluorophenyl)methoxy]-9b-(4-fluorobenzenesulfonyl)-1H,2H,3H,3aH,4H,5H,9bH-benzo[e]indol-3-yl]-2-oxoethyl}-1λ^6-thiomorpholine-1,1-dione]
10 | 0.0071 µM | O=C(C1CCS(=O)(=O)CC1)N1CC[C@@]2(S(=O)(=O)c3ccc(F)cc3)c3ccc(Oc4cccnc4F)cc3CC[C@@H]12 [Example 117, 4-[(3aR,9bR)-9b-(4-fluorobenzenesulfonyl)-7-[(2-fluoropyridin-3-yl)oxy]-1H,2H,3H,3aH,4H,5H,9bH-benzo[e]indole-3-carbonyl]-1λ^6-thiane-1,1-dione]
11 | 0.016 µM | O=C(O)[C@H]1CC[C@H](C(=O)N2CC[C@@]3(S(=O)(=O)c4ccc(F)cc4)c4ccc(OCc5cc(F)c(F)cc5Cl)cc4CC[C@@H]23)CC1 [Example 151, (1r,4r)-4-[(3aR,9bR)-7-[(2-chloro-4,5-difluorophenyl)methoxy]-9b-(4-fluorobenzenesulfonyl)-1H,2H,3H,3aH,4H,5H,9bH-benzo[e]indole-3-carbonyl]cyclohexane-1-carboxylic acid]
12 | 0.013 µM | O=C(C1CCS(=O)(=O)CC1)N1CC[C@@]2(S(=O)(=O)c3ccc(F)cc3)c3ccc(OCc4c(Cl)cccc4Cl)cc3CC[C@@H]12 [Example 128, 4-[(3aR,9bR)-7-[(2,6-dichlorophenyl)methoxy]-9b-(4-fluorobenzenesulfonyl)-1H,2H,3H,3aH,4H,5H,9bH-benzo[e]indole-3-carbonyl]-1λ^6-thiane-1,1-dione]
13 | 0.017 µM | O=C(C1CCS(=O)(=O)CC1)N1CC[C@@]2(S(=O)(=O)c3ccccc3)c3ccc(OCc4cc(Cl)ccc4Cl)cc3CC[C@@H]12 [Example 129, 4-[(3aR,9bR)-9b-(benzenesulfonyl)-7-[(2,5-dichlorophenyl)methoxy]-1H,2H,3H,3aH,4H,5H,9bH-benzo[e]indole-3-carbonyl]-1λ^6-thiane-1,1-dione]
14 | 0.353 µM | CC1(O)CN(C(=O)N2CC[C@@]3(S(=O)(=O)c4ccccc4)c4ccc(OCc5c(Cl)cccc5Cl)cc4CC[C@@H]23)C1 [Example 83, 1-[(3aR,9bR)-9b-(benzenesulfonyl)-7-[(2,6-dichlorophenyl)methoxy]-1H,2H,3H,3aH,4H,5H,9bH-benzo[e]indole-3-carbonyl]-3-methylazetidin-3-ol]
15 | 0.0027 µM | O=C(C1CCS(=O)(=O)CC1)N1CC[C@@]2(S(=O)(=O)c3ccc(F)cc3)c3ccc(Oc4c(F)cccc4C(F)(F)F)cc3CC[C@@H]12 [Example 39, 4-[(3aR,9bR)-7-[2-fluoro-6-(trifluoromethyl)phenoxy]-9b-(4-fluorobenzenesulfonyl)-1H,2H,3H,3aH,4H,5H,9bH-benzo[e]indole-3-carbonyl]-1λ^6-thiane-1,1-dione]
16 | 0.0052 µM | O=C(O)[C@H]1CC[C@H](C(=O)N2CC[C@@]3(S(=O)(=O)c4ccc(F)cc4)c4ccc(Cc5ccc(F)cc5)cc4CC[C@@H]23)CC1 [Example 40, (1r,4r)-4-[(3aR,9bR)-9b-(4-fluorobenzenesulfonyl)-7-[(4-fluorophenyl)methyl]-1H,2H,3H,3aH,4H,5H,9bH-benzo[e]indole-3-carbonyl]cyclohexane-1-carboxylic acid]
17 | 0.124 µM | NS(=O)(=O)CC(=O)N1CC[C@@]2(S(=O)(=O)c3ccc(F)cc3)c3ccc(OCc4cc(Cl)ccc4Cl)cc3CC[C@@H]12 [Example 209, 2-[(3aR,9bR)-7-[(2,5-dichlorophenyl)methoxy]-9b-(4-fluorobenzenesulfonyl)-1H,2H,3H,3aH,4H,5H,9bH-benzo[e]indol-3-yl]-2-oxoethane-1-sulfonamide]
18 | 0.306 µM | CC1(CN2CC[C@@]3(S(=O)(=O)c4ccc(F)cc4)c4ccc(OCc5c(F)cccc5C(F)(F)F)cc4CC[C@@H]23)CCNCC1 [Example 45, 4-{ [(3aR,9bR)-7-{ [2-fluoro-6-(trifluoromethyl)phenyl]methoxy} -9b-(4-fluorobenzenesulfonyl)-1H,2H,3H,3aH,4H,5H,9bH-benzo[e]indol-3-yl]methyl}-4-methylpiperidine]

Source: patent US20230295087A1, “AGONISTS OF ROR GAMMAt” (BRISTOL-MYERS SQUIBB COMPANY, priority 2019, published 2023)
